Assay results published in US20260183303A1, “PDK1 REGULATORY COMPOUND AND COMPOSITION CONTAINING THE SAME” (PROVIBIO CO., LTD., priority 2024, published 2026).

Test system: T cells isolated from mouse spleens
Assay: T cell proliferation inhibition (CFSE flow cytometry, anti-CD3/anti-CD28 activation)
Format: cell-based, C57BL/6 mice
Conditions: mouse spleen T cells, CD3/CD28 activated, cultured three days
Method: To verify the T cell proliferation inhibitory effect of the compounds according to the present invention, the following experiment was performed based on flow cytometry analysis using carboxyfluorescein diacetate succinimidyl ester (CFSE), a fluorescent dye that binds to intracellular molecules via covalent bonds.
Spleens were extracted from 7-week-old C57BL/6 mice, ground, and then separated into single cells using a strainer ([…], SPL). Red blood cells were removed using ACK (Ammonium-Chloride-Potassium) lysis buffer to isolate white blood cells.
Finally, using a MACS Magnetic Stand and LS column, T cells were isolated from the spleen.
The T cells isolated from the spleen were resuspended in 1 mL of free medium (RPMI-1640+200 U/mL penicillin+200 μg/mL streptomycin), and 0.3 μL of CFSE (10 mM) was added. The mixture was incubated at 37° C. for 5 minutes.
Free medium (10 mL) was added to stop the reaction, and the cells were centrifuged to obtain the cell pellet.
RPMI 1640 medium containing 10% FBS, 100 U/mL penicillin, 100 μg/mL streptomycin, and resuspended the cells. The cells were then seeded into a 96-well plate at a density of 2×10^5 cells per well and activated with CD3 and CD28 antibodies ([…]) to activate T cells.
The compound diluted in DMSO was added at concentrations of 10 nM, 100 nM, 1 μM, […], 30 μM, and 50 µM, with three wells per concentration, and cultured at 37° C. and 5% CO2 for three days. The cells were then analyzed using a FACS Canto instrument.
The proliferation inhibition rate (%) was calculated using the following formula: […]

Structure (SMILES) | Proliferation inhibition rate (%) (1 μM) | Proliferation inhibition rate (%) (10 μM) | Proliferation inhibition rate (%) (30 μM) | Proliferation inhibition rate (%) (50 μM) | Proliferation inhibition rate (%) (10 nM) | Proliferation inhibition rate (%) (100 nM) | other results
Nc1ncccc1C(=O)NCCCCCCCCCCCCN1CCC2CCCCC2C1 (stereo not shown) [Compound 16, 2-Amino-N-(12-(Octahydroisoquinolin-2(1H)-Yl)Dodecyl) Nicotinamide] | 100.00 | 100.00 | 100.00 | 100.00 | – | – | –
Nc1ncccc1C(=O)NCCCCCCCCCCCCN1CCc2ccccc2C1 [Compound 17, 2-Amino-N-(12-(3,4-dihydroisoquinolin-2(1H)-yl)dodecyl) nicotinamide] | – | – | – | – | – | – | Proliferation inhibition rate (%) (10 nM, listed as PBK-2024-004, 0.01 µM): 0.00%; Proliferation inhibition rate (%) (100 nM, listed as PBK-2024-004, 0.1 µM): −14.00%; Proliferation inhibition rate (%) (1 μM, listed as PBK-2024-004, 1 µM): 100.00%; Proliferation inhibition rate (%) (10 μM, listed as PBK-2024-004, 10 µM): 100.00%
CC1(C)CCN(CCCCCCCCCCCCNC(=O)c2cccnc2N)C1 [Compound 22, 2-Amino-N-(12-(3,3-dimethylpyrrolidin-1-yl)dodecyl) nicotinamide] | 100.00 | 100.00 | 100.00 | 100.00 | −0.80 | 100.00 | –
COC1CCN(CCCCCCCCCCCCNC(=O)c2cccnc2N)C1 (stereo not shown) [Compound 32, 2-Amino-N-(12-(3-methoxypyrrolidin-1-yl)dodecyl) nicotinamide] | – | – | – | 100.00 | – | – | Proliferation inhibition rate (%) (10 nM, listed as PBK-2024-024, 0.01 µM): 0.29%
CN(CCCCCCCCCCCCNC(=O)c1cccnc1N)C1CCCCC1 [Compound 34, 2-Amino-N-(12-(cyclohexyl(methyl)amino)dodecyl) nicotinamide] | 100.00 | 100.00 | 100.00 | 100.00 | – | 100.00 | –
CC1CN(CCCCCCCCCCCCNC(=O)c2cccnc2N)C(C)CN1.Cl (stereo not shown) [Compound 36, 2-Amino-N-(12-(2,5-dimethylpiperazin-1-yl)dodecyl) nicotinamide hydrochloride] | 100.00 | 100.00 | 100.00 | 100.00 | – | 100.00 | –
C[C@H]1CNCCN1CCCCCCCCCCCCNC(=O)c1cccnc1N.Cl [Compound 37, (S)-2-Amino-N-(12-(2-methylpiperazin-1-yl)dodecyl) nicotinamide hydrochloride] | 100.00 | 100.00 | 100.00 | 100.00 | – | – | –
CC1CCCN(CCCCCCCCCCCCNC(=O)c2cccnc2N)CC1 (stereo not shown) [Compound 39, 2-Amino-N-(12-(4-methylazepan-1-yl)dodecyl) nicotinamide] | 100.00 | 100.00 | 100.00 | 100.00 | – | 100.00 | –
CC1CN(C)C(CCCCCCCCCCCCNc2ccc3cncnc3n2)N1 (stereo not shown) [Compound 43] | 100.00 | 100.00 | 100.00 | 100.00 | – | 100.00 | –
Nc1ncccc1C(=O)NCCCCCCCCCCCCN1CCC(O)CC1 [Compound 48, 2-Amino-N-(12-(4-hydroxypiperidin-1-yl)dodecyl) nicotinamide] | 100.00 | 100.00 | 100.00 | 100.00 | – | 100.00 | –
CN(CCCCCCCCCCCCNC(=O)c1cccnc1N)C(C)(C)C [Compound 53, 2-Amino-N-(12-(tert-butyl(methyl)amino)dodecyl) nicotinamide] | 100.00 | 100.00 | 100.00 | 100.00 | – | 100.00 | –
Nc1ncccc1C(=O)NCCCCCCCCCCCCN1CCN(CCO)CC1 [Compound 54, 2-Amino-N-(12-(4-(2-hydroxyethyl)piperazin-1-yl)dodecyl) nicotinamide] | 100.00 | 100.00 | 100.00 | 100.00 | – | 100.00 | –
COC1CCN(CCCCCCCCCCCCNC(=O)c2cccnc2N)CC1 [Compound 94, 2-amino-N-(12-(4-methoxypiperidin-1-yl)dodecyl) nicotinamide] | 100.00 | 100.00 | 100.00 | 100.00 | – | 100.00 | –
Nc1ncccc1C(=O)NCCCCCCCCCCCCN1CCN(C=O)CC1 [Compound 97, 2-amino-N-(12-(4-formylpiperazin-1-yl)dodecyl) nicotinamide] | 100.00 | 100.00 | 100.00 | 100.00 | – | – | –
Nc1ncccc1C(=O)NCCCCCCCCCCCCN1CCN(C(=O)C2CC2)CC1 [Compound 99, 2-amino-N-(12-(4-(cyclopropanecarbonyl)piperazin-1-yl)dodecyl) nicotinamide] | 100.00 | 100.00 | 100.00 | 100.00 | −12.13 | 100.00 | –
CC(C)(C)OC(=O)NC1CCN(CCCCCCCCCCCCNC(=O)c2cccnc2N)CC1 [Compound 101, tert-Butyl (1-(12-(2-aminonicotinamido)dodecyl)piperidin-4-yl) carbamate] | 100.00 | 100.00 | 100.00 | 100.00 | −0.15 | 100.00 | –
CC(C)N1CCN(CCCCCCCCCCCCNC(=O)c2cccnc2N)CC1 [Compound 104, 2-Amino-N-(12-(4-isopropylpiperazin-1-yl)dodecyl) nicotinamide] | 100.00 | 100.00 | 100.00 | 100.00 | 100.00 | 100.00 | –
Nc1ncccc1C(=O)NCCCCCCCCCCCCn1ccc2c(Cl)c(I)cnc21 [Compound 109, 2-Amino-N-(12-(4-chloro-5-iodo-1H-pyrrolo[2,3-b]pyridin-1-yl)dodecyl) nicotinamide] | 20.91 | 100.00 | 100.00 | 100.00 | 0.15 | 8.48 | –
CC(C)(C)OC(=O)N1CCN(CCCCCCCCCCCCNC(=O)c2cccnc2N)CC1 [Compound 111, tert-butyl-4-(12-(2-aminonicotinamido)dodecyl) piperazine-1-carboxylate] | 100.00 | 100.00 | 100.00 | 100.00 | 0.00 | 100.00 | –
CC(C)(C)OC(=O)N[C@@H]1CCCN(CCCCCCCCCCCCNC(=O)c2cccnc2N)C1 [Compound 117, tert-butyl-(R)-(1-(12-(2-aminonicotinamido)dodecyl)piperidin-3-yl)carbamate] | – | – | – | – | – | – | inhibition at 0.01 µM (Mus musculus, T-cell, 72 h, 10 nM, read-out: Proliferation inhibition rate (%)): -15.8%; inhibition at 0.1 µM (Mus musculus, T-cell, 72 h, 100 nM, read-out: Proliferation inhibition rate (%)): 100%; inhibition at 1 µM (Mus musculus, T-cell, 72 h, 1 μM, read-out: Proliferation inhibition rate (%)): 100%; inhibition at 10 µM (Mus musculus, T-cell, 72 h, 10 μM, read-out: Proliferation inhibition rate (%)): 100%; inhibition at 30 µM (Mus musculus, T-cell, 72 h, 30 μM, read-out: Proliferation inhibition rate (%)): 100%; inhibition at 50 µM (Mus musculus, T-cell, 72 h, 50 μM, read-out: Proliferation inhibition rate (%)): 100%
